# In patent US7989442B2, “Progesterone receptor modulators” (N.V. Organon, priority 2006, dated 2011):
# Tests used:
# mature cyclic rats = experiment: Ovulation inhibition in rat after oral administration (in vivo progestagenic activity); conditions: 96 h, minimal active dose: average number of ova reduced by 60% relative to placebo, oral administration for 1 complete cycle (4 days), read-out: MAD
# Method: Ovulation inhibition after oral administration of the compounds of the invention was studied in mature cyclic rats. Animals were treated with test compound (oral administration) for 1 complete cycle (4 days, from oestrus to pro-oestrus) and the number of ova in the oviduct was microscopically assessed at autopsy in the morning of the next (expected) oestrus. The average number of ova per rat was calculated; the minimal active dose (MAD) is defined as the level at which the average number of ova is reduced by 60% relative to placebo-treated animals.
melting point [°C],Structure (SMILES),minimal effective dose (mature cyclic rats) [mg/kg]
,"N#Cc1cc2c(cc1F)Oc1ccccc1[C@@H]1[C@@H](NC(=O)C(F)(F)F)CCCN21 (stereo in doubt) [Example 2, (−)-(cis)-N-(7-cyano-8-fluoro-1,3,4,14b-tetrahydro-2H-dibenzo [b,f]pyrido[1,2-d][1,4]oxazepin-1-yl)-2,2,2-trifluoroacetamide]",0.014
,"N#Cc1c(F)cc2c(c1Cl)N1CCC[C@H](NC(=O)C(F)(F)F)[C@H]1c1ccccc1O2 (stereo in doubt) [Example 3, (−)-(cis)-N-[6-chloro-7-cyano-8-fluoro-1,3,4,14b-tetrahydro-2H-dibenzo [b,f]pyrido[1,2-d][1,4]oxazepin-1-yl]-2,2,2-trifluoroacetamide]",0.08
,"N#Cc1c(F)cc2c(c1C#N)N1CCC[C@H](NC(=O)C(F)(F)F)[C@H]1c1ccccc1O2 (stereo in doubt) [Example 4, (−)-(cis)-N-(6,7-dicyano-8-fluoro-1,3,4,14b-tetrahydro-2H-dibenzo [b,f]pyrido[1,2-d][1,4]oxazepin-1-yl)-2,2,2-trifluoroacetamide]",0.02
174 to 175,"N#Cc1c(F)cc2c(c1Cl)N1CCC[C@H](NC(=O)C(F)(F)F)[C@H]1c1ccc(F)cc1O2 (stereo in doubt) [Example 5, (−)-(cis)-N-(6-chloro-7-cyano-8,12-difluoro-1,3,4,14b-tetrahydro-2H-dibenzo [b,f]pyrido[1,2-d][1,4]oxazepin-1-yl)-2,2,2-trifluoroacetamide]",≤ 0.025
,"CC(=O)N[C@H]1CCCN2c3c(cc(F)c(C#N)c3Cl)Oc3cccc(F)c3[C@H]12 (stereo in doubt) [Example 6, (−)-(cis)-N-(6-chloro-7-cyano-8,14-difluoro-1,3,4,14b-tetrahydro-2H-dibenzo [b,f]pyrido[1,2-d][1,4]oxazepin-1-yl)acetamide]",< 0.02
,"N#Cc1c(F)cc2c(c1Cl)N1CCC[C@H](NC(=O)C(F)(F)F)[C@H]1c1cccc(F)c1O2 (stereo in doubt) [Example 7, (−)-(cis)-N-(6-chloro-7-cyano-8,11-difluoro-1,3,4,14b-tetrahydro-2H-dibenzo [b,f]pyrido[1,2-d][1,4]oxazepin-1-yl)-2,2,2-trifluoroacetamide]",0.025
,"N#Cc1cc2c(cc1F)Oc1cccc(F)c1[C@@H]1[C@@H](NC(=O)C(F)(F)F)CCCN21 (stereo in doubt) [Example 8, (−)-(cis)-N-(7-cyano-8,14-difluoro-1,3,4,14b-tetrahydro-2H-dibenzo [b,f]pyrido[1,2-d][1,4]oxazepin-1-yl)-2,2,2-trifluoroacetamide]",0.01
,"N#Cc1c(F)cc2c(c1Cl)N1CCC[C@H](NC(=O)C(F)(F)F)[C@H]1c1c(F)cccc1O2 (stereo in doubt) [Example 9, (−)-(cis)-N-(6-chloro-7-cyano-8,14-difluoro-1,3,4,14b-tetrahydro-2H-dibenzo [b,f]pyrido[1,2-d][1,4]oxazepin-1-yl)-2,2,2-trifluoroacetamide]",< 0.02
,"CC(=O)c1cccc2c1N1CCC[C@H](NC(=O)C(F)(F)F)[C@H]1c1ccccc1O2 [eutomer of example 52 of WO03/ 084963, reference compound]",> 4
,"C=Cc1cccc2c1N1CCC[C@H](NC(=O)C(F)(F)F)[C@H]1c1ccccc1O2 [eutomer of example 54 of WO03/ 084963, reference compound]",> 4
,"N#Cc1cc(F)cc2c1N1CCC[C@H](NC(=O)C(F)(F)F)[C@H]1c1ccccc1O2 [eutomer of example 58 of WO03/ 084963, reference compound]",0.38
,"N#Cc1ccc2c(c1)N1CCC[C@H](NC(=O)C(F)(F)F)[C@H]1c1ccccc1O2 [eutomer of example 63 of WO03/ 084963, reference compound]",~4
,"CC(=O)N[C@H]1CCCN2c3c(ccc(Cl)c3Cl)Oc3ccccc3[C@H]12 [example 47 of WO03/ 084963, reference compound]",> 4
,"CC(=O)c1cc(F)cc2c1N1CCC[C@H](NC(=O)C(F)(F)F)[C@H]1c1ccccc1O2 [example 57 of WO03/ 084963, reference compound]",> 4
,"C=Cc1cc(F)cc2c1N1CCC[C@H](NC(=O)C(F)(F)F)[C@H]1c1ccccc1O2 [example 59 of WO03/ 084963, reference compound]",> 4
,"Cc1cc(F)cc2c1N1CCC[C@H](NC(=O)C(F)(F)F)[C@H]1c1ccccc1O2 [example 60 of WO03/ 084963, reference compound]",~1
